Results from patent US20250320215A1, “SALTS OF N-[4-(4-[[2-(DIMETHYLAMINO)ETHYL]AMINO]-3-METHYL-1H-PYRAZOLO[3,4-D]PYRIMIDIN-6-YL)-2-FLUOROPHENYL]-2,5-DIFLUOROBENZENESULFONAMIDE AND CRYSTALLINE FORMS THEREOF” (THRYV THERAPEUTICS INC, priority 2022, published 2025).

Test: Solid stability testing (HPLC purity and XRPD)
Assay type: physicochemical
Procedure: HPLC analysis were performed with an Agilent HPLC 1260 series instrument. HPLC method for stability testing is as follows:
Solid stability testing of Compound 3, Form D was evaluated at the conditions of 60° C. (capped) and 40° C./75% RH (open) for 7 days. Polymorphic form and purity were analyzed by XRPD and HPLC, respectively. […] (capped) and 40° C./75% RH (open) for 7 days.
Solid stability testing of Compound 4 Form B and Form D were evaluated at the conditions of 60° C. (vial close) and 40° C./75% RH (vial open) for 7 days. Polymorphic form and purity were checked by XRPD and HPLC, respectively.

Cc1n[nH]c2nc(-c3ccc(NS(=O)(=O)c4cc(F)ccc4F)c(F)c3)nc(NCCN(C)C)c12 [Compound 4 Form B]
Solid stability (40° C./75% RH (open), day 7): partially converted to Form D | Solid stability (60° C. (close), 7 days): chemically and physically stable | Purity, Initial T0 (HPLC, before storage): 99.47% | Purity - 7 days, 60° C. (HPLC, capped/closed vial, 7 days): 99.41% | Purity - 7 days, 40° C./75% RH (HPLC, open, 7 days): 99.18% | XRPD, Initial T0 (before storage): Form B | XRPD - 7 days, 60° C. (capped/closed vial, 7 days): Form B
